# According to PubChem BioAssay AID463204 (Broad Institute, 2010):
# Activity calls are given as the source filed them.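 Rule for the calls: active = AC50 no more than ten times the top concentration tested, that is within one log above it; inconclusive = flat curve fit with activity between 30% and 70%, or invalid poor fit; inactive = AC50 beyond ten times the top tested dose.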
# Test system: S. cerevisiae Mot1-301 ts growth rescue, BacTiter-Glo ATP luminescence
# Assay: restored Mot1-301 yeast growth at 38.5C – whole organism, S. cerevisiae, Mot1-301 ts mutant, luminescence, dose retest, SUMOylation pathway inhibitor project, confirmation (AID 463204);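 note: growth at restrictive 38.5 degrees C of Mot1-301 OY566 strain; actives raise luminescence by restoring growth of the ts mutant at high temperature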
row,SMILES,AC50
1,COc1cc(CNCc2ccc3c(c2)OCO3)c([N+](=O)[O-])cc1OC,> 42 µM (inactive)
2,O=C(NCc1nc(-c2ccccc2)no1)c1cccs1,> 42 µM (inactive)
3,O=C(O)c1cn(Cc2ccccn2)c(=O)c2ccccc12,> 42 µM (inactive)
4,O=c1[nH]c(O)c(N=Nc2cc([N+](=O)[O-])ccc2O)c(=O)[nH]1,> 42 µM (inactive)
5,CCOC(=O)Cc1csc(NC(=O)NC2(C(F)(F)F)Oc3ccccc3O2)n1,> 42 µM (inactive)
6,CC1CC(N(C(=O)c2ccccc2Cl)c2ccccc2)c2ccccc2N1 (centres undefined),> 42 µM (inactive)
7,COCCCn1c(=O)c2ccccc2n(Cc2ccccc2C)c1=O,> 42 µM (inactive)
8,O=C(O)c1ccc(/C=N/NC(=O)c2cc(-c3ccc4c5c(cccc35)CC4)n[nH]2)cc1,> 42 µM (inactive)
9,O=S(=O)(Nc1cccc2cn[nH]c12)c1ccc(F)cc1,> 42 µM (inactive)
10,Cn1c(O)c(C(c2ccccn2)c2c(O)n(C)c(=S)n(C)c2=O)c(=O)n(C)c1=S,> 42 µM (inactive)
11,CCN1C(=O)N(c2ccc(Cl)cc2)C(C)=CC1(C)C,> 42 µM (inactive)
12,O=C(CNC(=O)c1ccco1)OCC(=O)c1cccc2ccccc12,> 42 µM (inactive)
13,CCOc1ccc(N(CC)S(=O)(=O)c2cccc3nsnc23)cc1,> 42 µM (inactive)
14,Cc1cccc(N2CCN(C(=O)CN3C(=O)NC(C)(C)C3=O)CC2)c1C,> 42 µM (inactive)
15,O=c1cc(C(F)(F)F)c2sc(N3CCCCC3)nc2[nH]1,> 42 µM (inactive)
16,COc1ccc(-c2[nH]nc3c2C(c2ccncc2)C(C#N)=C(N)O3)cc1 (centres undefined),> 42 µM (inactive)
17,COc1ccc(NC(=O)CSc2nccc(C)n2)cc1,> 42 µM (inactive)
18,COc1cc(-c2nnc(SCC#CCO)o2)cc(OC)c1OC,> 42 µM (inactive)
19,Cc1cccc(NS(=O)(=O)c2ccc3[nH]c(=O)cc(C(=O)O)c3c2)c1,> 21 µM (inactive)
20,O=C(CN1CCN(C(=O)c2ccccc2)CC1)Nc1ncc(Br)cc1Br,> 42 µM (inactive)

row,SMILES,AC50
1,Cc1cccc(N=C2C(=O)Nc3c(Cl)cccc32)c1,> 42 µM (inactive)
2,CCOc1ccc(/C=N/NC(=O)c2ccc(CSc3nc4ccccc4[nH]3)cc2)cc1,> 42 µM (inactive)
3,COc1cc2c(cc1OC)C(c1ccc(SC)cc1)CC(=O)N2 (centres undefined),> 42 µM (inactive)
4,COc1ccc(/C=C(/C#N)S(=O)(=O)c2ccc(C)cc2)cc1,> 21 µM (inactive)
5,Cc1ccc(NC(=O)C(CC(C)C)NC(=O)C2CCC(C)CC2)nc1 (centres undefined),> 42 µM (inactive)
6,CC(=O)N(C(C)=O)C1=C(C#N)C2(CCCCC2)Cc2ccccc21,> 42 µM (inactive)
7,CC(C)(C)C(=O)NC1CCN(CC(=O)Nc2ccc3c(c2)OCO3)CC1,> 42 µM (inactive)
8,CCOc1ccc(C(=O)NCC2OCCc3ccccc32)cc1 (centres undefined),> 42 µM (inactive)
9,CC(C)(CNC(=O)c1cccs1)CNC(=O)c1cccs1,> 42 µM (inactive)
10,CC(=O)Nc1sc2c(c1C(c1ccc(F)cc1)N1CCOCC1)CCCC2 (centres undefined),11.8 µM
11,O=C(NC(=S)Nc1ccccc1N1CCCC1)c1ccc([N+](=O)[O-])cc1,> 42 µM (inactive)
12,COc1ccc(S(=O)(=O)Cc2ccc(C(=O)NCc3cccs3)o2)cc1,> 42 µM (inactive)
13,CCCSc1nnc(NC(=O)CSc2sc3c(O)cc(=O)[nH]c3c2C#N)s1,> 42 µM (inactive)
14,COC(=O)[C@H](Cc1ccccc1)NC(=O)NC(C)CCc1ccccc1 (some centres undefined),> 42 µM (inactive)
15,CC(C)n1c(O)c(N=Nc2ccccn2)c2ccccc21,> 42 µM (inactive)
16,CCN(CC)S(=O)(=O)c1ccc(N2CCCC2)c(C(=O)OCC(=O)Nc2cc(C)on2)c1,> 42 µM (inactive)
17,OCCc1c[nH]c2cc(F)ccc12,> 110 µM (inactive)
18,COc1cccc(-n2c(Cc3cc(=O)[nH]c(=O)[nH]3)nnc2SCc2cccnc2)c1,> 42 µM (inactive)
19,CCCN1C(=O)c2[nH]nc(-c3cc(Cl)c(C)cc3O)c2C1c1ccc(O)c(OC)c1 (centres undefined),> 42 µM (inactive)
